From ChEMBL document CHEMBL3808324, “Promising Therapeutic Potential of P2X7 Modulators” (ACS Med Chem Lett, 2016)

Key:
[1] = target: T1, P2X purinoceptor 7 (Homo sapiens) (UniProt Q99572); test: (§1) Antagonist activity against ATP-gated P2X7 receptor in LPS-stimulated human PBMC assessed as reduction in P2X7 agonist 2'(3')-O-(4-benzoylbenzoyl) adenosine 5'-triphosphate-induced IL-1beta at 1 uM incubated for 30 mins after 1 hr pre-treatment with LPS followed by Bz-ATP-stimulation for 1.5 hrs by ELISA; parameters: scale not given: the % may be the effect or the level left
T1 sequence (whole entry): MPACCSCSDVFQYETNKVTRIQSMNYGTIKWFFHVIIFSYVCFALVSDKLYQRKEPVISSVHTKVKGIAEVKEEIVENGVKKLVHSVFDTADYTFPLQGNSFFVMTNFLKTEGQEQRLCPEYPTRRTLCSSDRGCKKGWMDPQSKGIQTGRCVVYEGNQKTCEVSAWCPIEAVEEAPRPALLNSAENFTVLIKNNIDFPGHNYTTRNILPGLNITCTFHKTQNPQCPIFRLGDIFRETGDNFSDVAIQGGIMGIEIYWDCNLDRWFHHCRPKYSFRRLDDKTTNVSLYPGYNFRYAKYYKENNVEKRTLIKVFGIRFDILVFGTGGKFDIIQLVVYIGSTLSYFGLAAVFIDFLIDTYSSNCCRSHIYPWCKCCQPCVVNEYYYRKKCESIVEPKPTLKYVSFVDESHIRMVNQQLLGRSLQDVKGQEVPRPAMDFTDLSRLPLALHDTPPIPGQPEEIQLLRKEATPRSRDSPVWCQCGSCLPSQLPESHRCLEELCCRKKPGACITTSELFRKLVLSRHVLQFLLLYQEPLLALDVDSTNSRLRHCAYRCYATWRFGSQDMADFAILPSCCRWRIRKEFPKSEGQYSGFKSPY

P2X purinoceptor 7 = target: T2, P2X purinoceptor 7 (Rattus norvegicus, UniProt Q64663); test: Antagonist activity against rat recombinant ATP-gated P2X7 receptor expressed in human 1321N1 cells assessed as reduction in BzATP -induced Ca2+ flux pre-incubated for 30 mins before BzATP addition by calcium-4 dye based FLIPR assay; assay type: cell-based
T2 sequence (Q64663 whole entry): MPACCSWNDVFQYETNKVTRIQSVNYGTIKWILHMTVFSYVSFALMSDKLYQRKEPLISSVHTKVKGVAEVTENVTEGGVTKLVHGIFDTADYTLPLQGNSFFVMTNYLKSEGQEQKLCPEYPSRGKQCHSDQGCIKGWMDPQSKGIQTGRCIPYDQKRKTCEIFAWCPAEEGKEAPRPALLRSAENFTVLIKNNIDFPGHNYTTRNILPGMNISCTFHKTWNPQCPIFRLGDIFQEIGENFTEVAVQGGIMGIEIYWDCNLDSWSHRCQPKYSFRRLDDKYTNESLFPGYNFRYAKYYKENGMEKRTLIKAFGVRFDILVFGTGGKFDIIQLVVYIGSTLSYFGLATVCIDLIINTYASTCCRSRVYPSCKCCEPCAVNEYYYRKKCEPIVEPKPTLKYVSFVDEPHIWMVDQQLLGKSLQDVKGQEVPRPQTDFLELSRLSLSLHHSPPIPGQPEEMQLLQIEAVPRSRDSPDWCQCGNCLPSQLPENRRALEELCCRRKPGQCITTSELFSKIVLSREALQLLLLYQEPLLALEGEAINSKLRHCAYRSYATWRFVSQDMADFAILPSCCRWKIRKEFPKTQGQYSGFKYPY

[2] = target: T1, P2X purinoceptor 7 (Homo sapiens); test: as §1, with “at 10” for “at 1”; parameters: scale not given: the % may be the effect or the level left

| Activity [1] | IC50 (P2X purinoceptor 7) | Activity [2] | SMILES |
| --- | --- | --- | --- |
| 26.9% | – | – | O=C(c1cccc(C(F)(F)F)c1Cl)N1CCc2c(ncnc2-c2ccccn2)C1 |
| – | 1460 nM | 2% | COc1cccc(C(=O)N2Cc3nc(C)nc(-c4ccn[nH]4)c3CC2C)c1F (stereo not drawn) |
| 104% | – | 100% | Cc1nc2c(c(-c3c(C)noc3C)n1)CCN(C(=O)c1cccc(C(F)(F)F)c1Cl)C2 |
| – | – | -6.1% | Cc1nc2c(c(-c3ccn[nH]3)n1)C[C@@H](C)N(C(=O)c1ccc(F)c(C(F)(F)F)c1Cl)C2 (single isomer, unassigned) |
| 14.2% | – | – | O=C(c1cccc(Cl)c1Cl)N1CCc2c(ncnc2-c2ccn[nH]2)C1 |
| 71.8% | – | – | O=C(c1cccc(Cl)c1Cl)N1CCc2c(ncnc2-n2nccn2)C1 |
